# Reference: US6562834B2, “Combination comprising camptothecin and a stilbene derivative for the treatment of cancer” (Aventis Pharma S. A., priority 2000, dated 2003)
# Test system: colon adenocarcinoma C51
# Assay: Antitumor effect and safety of CPT-11, combretastatin and their combinations in mice bearing colon adenocarcinoma C51
# Assay type: in vivo
# Experimental: This efficacy may be quantified, for example by the log10 cells killed, which is determined by the following formula:
# log10 cells killed=T−C(days)/3.32×Td
# in which T−C represents the time taken for the cells to grow, which is the mean time in days for the tumors of the treated group (T) to reach a predetermined value (1 g for example) and the tumors of the control group (C) to reach the same value, and Td represents the time in days needed for the volume of the tumors in the control group to double. (T. H. Corbett et al., Cancer, 40, 2660.2680 (1977); F. M. Schabel et al., Cancer Drug Development, Part B, Methods in Cancer Research, 17, 3-51, New York, Academic Press Inc. (1979)). A product is considered to be active if log10 cells killed is greater than or equal to 0.7. A product is considered to be very active if the log10 cells killed is greater than 2.8.
# The effect of the combination of CPT-11 and combretastatin was evaluated in mice bearing colon adenocarcinoma C51. CPT-11 was given orally on days two through five, […], at different dosage levels. Combretastatin was administered intravenously, two times a day, on days one to five. In the combination arms, three different dosages of CPT-11 were administered orally twice daily on days two through five and three different dosages of combretastatin were administered intravenously twice a day on days one through five.
# Combretastatin, administered intravenously, and CPT-11, administered orally, were tested in several different schedules as reported in Table IV. When used as a single agent, combretastatin was administered twice a day for five consecutive days. When CPT-11 was administered alone, it was given once a day for four consecutive days.
# When administered sequentially, two schedules were used. When combretastatin was given first, it was administered on day 1, followed by administration of CPT-11 once a day on days 2-5. When CPT-11 was the first compound given in the sequence, it was administered once a day on days 1-4, followed by combretastatin on day 5.
Molecule,Colon 51 PR (partial response: mice with decrease in tumor volume of at least 50% / mice tested) (single agent combretastatin IV 116.5 mg/kg/injection (highest non-toxic dose)),"Log10 Cell Kill (single agent combretastatin IV 116.5 mg/kg/injection (highest non-toxic dose), 2 x/day days 1-5, Colon 51)","highest non-toxic dose (CPT-11 oral, single agent, mice)","Log10 Cell Kill (single agent CPT-11 oral 400 mg/kg (highest non-toxic dose), Colon 51, tumor size 400-500 mg, Td = 2.4 d)"
Combretastatin,5/5,1.3,–,–
"CCc1c2c(nc3ccc(OC(=O)N4CCC(N5CCCCC5)CC4)cc13)-c1cc3c(c(=O)n1C2)COC(=O)[C@]3(O)CC [CPT-11, irinotecan]",–,–,400 mg/kg,1.1
